In the test the test system is ulcers in 24 hr. fasted S.D. rats. The test is described as follows: Indomethacin-Induced Ulcer Assay (assay B). The class given is in vivo. As to conditions: 15 min prior to indomethacin 10 mg/kg p.o., stomach mucosae examined 4 hours later. How it is done: B. Indomethacin-Induced Ulcer Assay
Indomethacin, 10 mg/kg p.o., is used to induce ulcers in 24 hr. fasted S.D. rats. Fifteen minutes prior to indomethacin administration, groups of rats each receive either an aqueous vehicle (5% wt. methylcellulose) or the test compound at various doses perorally. Four hours later the animals are sacrificed and stomach-mucosae are examined for resulting ulcers.
Following the procedure of assay B (Indomethacin-Induced Ulcer Assay), 4-bromo-2,7-dimethoxy-3H-phenothiazin-3-one was tested for ulcer inhibition. For Table 49-1, % Inhibition was calculated as: [formula]

Regarding `COc1ccc2nc3cc(OC)c(=O)c(Br)c-3sc2c1` [4-Bromo-2,7-dimethoxy-3H-phenothiazin-3-one], the “% Inhibition” value is 38% (Dose 0.003 mg/kg perorally); 56% (Dose 0.01 mg/kg perorally); 69% (Dose 0.03 mg/kg perorally); 66% (Dose 0.1 mg/kg perorally); 70% (Dose 0.3 mg/kg perorally); 87% (Dose 3.0 mg/kg perorally).

These data come from patent EP0155623A2, “Use of lipoxygenase inhibitors for the preparations of cytoprotective pharmaceutical compostions and process for the preparation of a cytoprotective pharmaceutical composition” (Merck & Co., Inc., priority 1984, dated 1985).
